Experimental data published in PMC7217877, “N-AS-triggered SPMs are direct regulators of microglia in a model of Alzheimer’s disease” (Nature Communications, 2020).
Several values for one entry are separate records, joined by “and”; a condition that tells them apart may be missing. Equal values may be shown once.

Experiments:
neuron = assay: western blotting for ac-S565 and total COX2 in primary cells; assay type: cell-based, C57BL/6 mice; settings: replicates
microglia = assay: as above; assay type: cell-based, C57BL/6 mice; design: ac-S565, western blotting (Fig 3h): scale not given here; settings: replicates
Method: To confirm the generation and roles of N-AS in neurons, cells from E18 C57BL/6 mice were prepared as previously described. Cortices were dissected and then dissociated followed by incubation in papain (Worthington) at 37 °C for 15 min. Neurons were plated on poly-L-lysine-coated coverslips with neuronal culture medium, serum-free Neurobasal medium (Gibco) containing 2% B27 supplements (Gibco), 1 mM Glutamax supplement (Gibco), and 100 U ml^−1 streptomycin/ 100 U ml^−1 penicillin (Gibco) at 37 °C in a humidified atmosphere of 5% CO2. Aβ 1–42 (10 μM, 24 h, Invitrogen, 03112) was exposed to neurons and the cells were analyzed for the generation and roles of N-AS. Primary astrocyte cultures were prepared from C57BL/6 mice as described previously. In brief, after removal of the meninges, postnatal day 7 (P7) mouse brain tissues were minced and incubated in a rocking water bath at 37 °C for 30 min in the presence of 0.25% trypsin-EDTA (Sigma-Aldrich). Enzyme-digested dissociated cells were triturated with astrocyte-specific medium (DMEM/F12 containing 10% FBS and 1% penicillin-streptomycin) and centrifuged at 155×g for 8 min. The pellet was resuspended in astrocyte-specific medium and passed through a 40-μm cell strainer. The filtrate was allowed pre-adherence for 30 min to remove any contamination from fibroblasts before being seeded in dishes and the addition of astrocyte-specific medium. To split the cells, Ara-C was added to the dishes and they were then placed in a heated shaker for 6–7 h. The medium was removed from the dishes, and trypsin-EDTA was added to the dish and incubated at 37 °C for 5–10 min. After centrifugation at 155×g for 8 min, the supernatant was removed, and the astrocytes were maintained in culture by feeding […] with astrocyte-specific medium. Primary microglia cultures were prepared from C57BL/6 mice as described previously. In brief, the cortices of 2-months-old mice were minced in Hibernate A (Gibco)/B27 supplements (Gibco) medium and dissociated using papain (Worthington) solution. After tissue trituration, cells were separated by Optiprep (Sigma-Aldrich) density gradient centrifugation. Microglia were plated with microglia-specific medium (DMEM/F12 containing 10% FBS and 1% penicillin-streptomycin). The immortalized human microglia (Applied Biologics Materials, T0251) were cultured in PriGrow III (Applied Biologics Materials, TM003) (supplemented with 10% FBS and 1% penicillin-streptomycin) at 37 °C in a humidified atmosphere of 5% CO2. In order to assess the clinical importance of N-AS in AD microglia, Aβ 1–42 (50 μM, 24 h, Invitrogen, 03112) was exposed to human microglia before treated with zileuton (50 μM, 24 h, Sigma-Aldrich, Z4277). The human microglia treated with Aβ 1–42 and/or zileuton was incubated with N-AS (2.5 μM, 2 h, Sigma-Aldrich, 01912), and were analyzed for the generation and roles of N-AS.
Samples were lysed in RIPA buffer (Cell signaling Technologies), then subjected to SDS-PAGE and transferred to a nitrocellulose membrane. Membranes were blocked with 5% milk, incubated with primary antibody and then incubated with the appropriate horseradish peroxidase-conjugated secondary antibody. […] We performed densitometric quantification using the ImageJ software (National Institutes of Health). Images have been cropped for presentation.

[1] = test system: immortalized human microglia; assay: LM-SPM profile of human microglia (LC-MS/MS, Supplementary Table 3, Fig 6d); assay type: cell-based; settings: Aβ 50 µM alone; mean±s.e.m.

Molecule: CCCCCCCCCCCCC/C=C/[C@@H](O)[C@@H](N)CO [Sph, sphingosine]
- ac-S565, western blotting (Fig 3h) (neuron; Ab 10mM + supplement): 0.6309 and 0.6553 and 0.6332 and 0.656
- ac-S565, western blotting (Fig 3h) (microglia; Ab 10mM + supplement): 0.2446 and 0.241 and 0.1599 and 0.2328

Molecule: Ab: Aβ 1–42 (Invitrogen, 03112) used to induce an AD environment in cells
- ac-S565, western blotting (Fig 3h) (neuron; Ab 10mM, no supplement): 0.4287 and 0.5828 and 0.4634 and 0.6503
- ac-S565 / total COX2, western blotting (Fig 3b) (neuron; Ab 10mM): 0.7374 and 0.6807 and 0.7791 and 0.4902 and 0.709 and 0.7299
- ac-S565, western blotting (Fig 3h) (microglia; Ab 10mM, no supplement): 0.2316 and 0.2169 and 0.2234 and 0.1511
- ac-S565 / total COX2, western blotting (Fig 3b) (microglia; Ab 10mM): 0.3907 and 0.4255 and 0.3575 and 0.3077 and 0.4081 and 0.3915
- 11-HEPE in human microglia [1]: 490.2±2.4 ng/ml*106cell
- 11-HETE in human microglia [1]: 174.9±2.0 ng/ml*106cell
- 13-HDHA in human microglia [1]: 128.2±1.8 ng/ml*106cell
- 15-HEPE in human microglia [1]: 272.1±7.3 ng/ml*106cell
- 15-HETE in human microglia [1]: 564.3±4.4 ng/ml*106cell
- 15R-LXA4 in human microglia [1]: 0.03±0.0 ng/ml*106cell
- 17-HDHA in human microglia [1]: 561.8±2.7 ng/ml*106cell
- 18-HEPE in human microglia [1]: 1515.3±10.4 ng/ml*106cell
- PGE3/PGD3 in human microglia [1]: 163.9±2.5 ng/ml*106cell
- PGH2/PGE2 in human microglia [1]: 78.7±0.8 ng/ml*106cell
- RvD1 in human microglia [1]: 0.01±0.0 ng/ml*106cell
- RvE1 in human microglia [1]: 0.01±0.0 ng/ml*106cell

B1: Sphk1: purified sphingosine kinase1 enzyme (Cayman, 10348) supplemented to cell lysates (protein, UniProt Q9NYA1 1-384, looked up)
Sphingosine kinase 1: MDPAGGPRGVLPRPCRVLVLLNPRGGKGKALQLFRSHVQPLLAEAEISFTLMLTERRNHARELVRSEELGRWDALVVMSGDGLMHEVVNGLMERPDWETAIQKPLCSLPAGSGNALAASLNHYAGYEQVTNEDLLTNCTLLLCRRLLSPMNLLSLHTASGLRLFSVLSLAWGFIADVDLESEKYRRLGEMRFTLGTFLRLAALRTYRGRLAYLPVGRVGSKTPASPVVVQQGPVDAHLVPLEEPVPSHWTVVPDEDFVLVLALLHSHLGSEMFAAPMGRCAAGVMHLFYVRAGVSRAMLLRLFLAMEKGRHMEYECPYLVYVPVVAFRLEPKDGKGVFAVDGELMVSEAVQGQVHPNYFWMVSGCVEPPPSWKPQQMPPPEEPL
- ac-S565, western blotting (Fig 3h) (neuron; Ab 10mM + supplement): 1.248 and 1.156 and 1.263 and 1.199
- ac-S565, western blotting (Fig 3h) (microglia; Ab 10mM + supplement): 0.2731 and 0.2264 and 0.2811 and 0.241
